We go through 12 molecules from patent US12358915B2, “METTL3 inhibitory compounds” (STORM THERAPEUTICS LTD., priority 2019, dated 2025).

Like-named read-outs stand apart in the source and are kept apart here.

This assay concerns the target T1, METTL3/14 (Homo sapiens, UniProt Q86U44).
T1 construct: The enzyme used was full-length his-tagged METTL3; His; made in house
The assay can be described thus: METTL3/14 methyltransferase assay (METTL3_14 RFMS, RapidFire mass spectrometry).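 Further: recombinant His-tagged METTL3 with FLAG-tagged METTL14 from baculovirus, SAH product quantified by mass spectrometry against isotope-labelled internal standards, 60 min at room temperature, scaled between no-RNA and DMSO-only wells.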 It counts as biochemical. As to conditions: 5 nM METTL3/14, 0.2 μM RNA substrate, 0.5 μM SAM, lower limit of the assay IC50=5 nM, read-out: METTL3_14 RFMS IC50.

T1 sequence (Q86U44 whole entry): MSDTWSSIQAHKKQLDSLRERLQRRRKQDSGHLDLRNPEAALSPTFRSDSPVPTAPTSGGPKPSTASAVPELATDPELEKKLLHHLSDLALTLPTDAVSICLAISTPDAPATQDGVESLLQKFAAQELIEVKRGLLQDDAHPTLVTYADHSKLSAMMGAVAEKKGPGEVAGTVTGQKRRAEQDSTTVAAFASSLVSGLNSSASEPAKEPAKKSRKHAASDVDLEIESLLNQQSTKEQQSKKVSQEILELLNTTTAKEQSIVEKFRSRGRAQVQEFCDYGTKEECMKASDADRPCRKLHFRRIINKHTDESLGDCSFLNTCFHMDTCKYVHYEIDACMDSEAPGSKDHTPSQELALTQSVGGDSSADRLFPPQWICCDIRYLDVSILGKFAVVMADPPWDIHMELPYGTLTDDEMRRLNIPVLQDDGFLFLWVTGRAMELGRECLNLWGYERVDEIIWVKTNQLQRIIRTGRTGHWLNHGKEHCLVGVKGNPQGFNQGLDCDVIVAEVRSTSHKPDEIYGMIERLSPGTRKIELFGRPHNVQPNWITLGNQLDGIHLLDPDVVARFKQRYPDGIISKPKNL
T1 sequence (Q9HCE5 whole entry partner): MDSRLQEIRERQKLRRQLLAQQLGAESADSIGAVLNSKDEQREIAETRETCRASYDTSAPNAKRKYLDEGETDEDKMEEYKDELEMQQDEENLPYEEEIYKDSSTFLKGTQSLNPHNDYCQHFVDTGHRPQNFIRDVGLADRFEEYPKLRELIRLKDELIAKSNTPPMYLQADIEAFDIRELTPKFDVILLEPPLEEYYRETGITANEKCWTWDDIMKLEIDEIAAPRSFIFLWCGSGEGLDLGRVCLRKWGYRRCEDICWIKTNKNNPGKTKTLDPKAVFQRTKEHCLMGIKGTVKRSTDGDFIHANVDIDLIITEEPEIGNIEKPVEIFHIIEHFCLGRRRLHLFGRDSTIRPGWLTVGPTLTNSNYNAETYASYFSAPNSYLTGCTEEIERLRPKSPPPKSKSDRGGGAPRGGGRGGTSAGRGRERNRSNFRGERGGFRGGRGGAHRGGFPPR

For `NC(Cc1ccccc1)Cc1ccc2nc(CNC(=O)c3cc(=O)n4ccccc4n3)cn2c1` (stereo not drawn) [Compound 247, N-{[6-(2-amino-3-phenylpropyl)imidazo[1,2-a]pyridin-2-yl]methyl}-4-oxo-4H-pyrido[1,2-a]pyrimidine-2-carboxamide], the IC50 (Compounds 63-265) was 1.08 µM.

On to `CC(C)(C)CNCc1ccc2nc(CNC(=O)c3cc(=O)c4ccccc4o3)cn2c1` [Compound 265, N-[(6-{[(2,2-dimethylpropyl)amino]methyl}imidazo[1,2-a]pyridin-2-yl)methyl]-4-oxo-4H-chromene-2-carboxamide], for which the IC50 (Compounds 63-265) was found to be 0.0506 µM.

As for `CC(C)(C#N)CNCc1ccc2nc(CNC(=O)c3cc(=O)n4ccccc4n3)cn2c1` [Compound 275, N-[[6-[[(2-cyano-2-methyl-propyl)amino]methyl]imidazo[1,2-a]pyridin-2-yl]methyl]-4-oxo-pyrido[1,2-a]pyrimidine-2-carboxamide], the IC50 (Compounds 266-351) worked out at 1.24 µM.

Consider `O=C(NCc1cn2cc(CNCC3CC4(CCC4)C3)ccc2n1)c1cc(=O)n2ccccc2n1` [Compound 277, 4-oxo-N-[[6-[(spiro[3.3]heptan-2-ylmethylamino)methyl]imidazo[1,2-a]pyridin-2-yl]methyl]pyrido[1,2-a]pyrimidine-2-carboxamide], for which the IC50 (Compounds 266-351) came to 0.0763 µM.

In the case of `CCC(O)CNCc1ccc2nc(CNC(=O)c3cc(=O)n4ccccc4n3)cn2c1` (stereo not drawn) [Compound 289, N-[[6-[(2-hydroxputylamino)methyl]imidazo[1,2-a]pyridin-2-yl]methyl]-4-oxo-pyrido[1,2-a]pyrimidine-2-carboxamide], the IC50 (Compounds 266-351) was determined as 0.103 µM.

Turning to `CC1(C)CC(CNCc2ccc3nc(CNC(=O)c4cc(=O)n5ccccc5n4)cn3c2)C1` [Compound 291, N-[[6-[[(3,3-dimethylcyclobutyl)methylamino]methyl]imidazo[1,2-a]pyridin-2-yl]methyl]-4-oxo-pyrido[1,2-a]pyrimidine-2-carboxamide], for the setting “Compounds 266-351”, the IC50 turned out to be 0.0622 µM.

Take `O=C(NCc1cn2cc(CNCC3CC4C=CC3C4)ccc2n1)c1cc(=O)n2ccccc2n1` (stereo not drawn) [Compound 346, N-[(6-{[({bicyclo[2.2.1]hept-5-en-2-yl}methyl)amino]methyl}imidazo[1,2-a]pyridin-2-yl)methyl]-4-oxo-4H-pyrido[1,2-a]pyrimidine-2-carboxamide]: the IC50 (Compounds 266-351) is 0.00768 µM.

As to `O=C(NCc1cn2cc(CNC[C@@H]3C[C@H]4CC[C@@H]3C4)ccc2n1)c1cc(=O)n2ccccc2n1` [Compound 347, N-({6-[({[(1R,2R,4S)-bicyclo[2.2.1]heptan-2-yl]methyl}amino)methyl]imidazo[1,2-a]pyridin-2-yl}methyl)-4-oxo-4H-pyrido[1,2-a]pyrimidine-2-carboxamide], the IC50 (Compounds 266-351) was 0.0075 µM.

Take `O=C(NCc1cn2cc(CNC[C@H]3C[C@H]4CC[C@@H]3C4)ccc2n1)c1cc(=O)n2ccccc2n1` [Compound 348, N-({6-[({[(1R,2S,4S)-bicyclo[2.2.1]heptan-2-yl]methyl}amino)methyl]imidazo[1,2-a]pyridin-2-yl}methyl)-4-oxo-4H-pyrido[1,2-a]pyrimidine-2-carboxamide]: the IC50 (Compounds 266-351) amounted to 0.00902 µM.

For `O=C(NCc1cn2cc(CN3CC4CC3CO4)ccc2n1)c1cc(=O)n2ccccc2n1` (stereo not drawn) [Compound 349, N-{[6-({2-oxa-5-azabicyclo[2.2.1]heptan-5-yl}methyl)imidazo[1,2-a]pyridin-2-yl]methyl}-4-oxo-4H-pyrido[1,2-a]pyrimidine-2-carboxamide], the IC50 (Compounds 266-351) is 0.303 µM.

Consider `O=C(NCc1cn2cc(CN3CC4CCC3C4)ccc2n1)c1cc(=O)n2ccccc2n1` (stereo not drawn) [Compound 350, N-{[6-({2-azabicyclo[2.2.1]heptan-2-yl}methyl)imidazo[1,2-a]pyridin-2-yl]methyl}-4-oxo-4H-pyrido[1,2-a]pyrimidine-2-carboxamide], for which the IC50 (Compounds 266-351) was determined as 0.0562 µM.

Take `O=C(NCc1cn2cc(CN3CC4CCC3CC4)ccc2n1)c1cc(=O)n2ccccc2n1` [Compound 351, N-{[6-({2-azabicyclo[2.2.2]octan-2-yl}methyl)imidazo[1,2-a]pyridin-2-yl]methyl}-4-oxo-4H-pyrido[1,2-a]pyrimidine-2-carboxamide]: the IC50 (Compounds 266-351) was 0.0241 µM.

The term IC50 denotes the concentration that gives 50% inhibition.
